# According to patent publication US6914045B2, “Glycopeptide antibiotics” (Wyeth Holdings Corporation, priority 2001, dated 2005):
# Legend:
# Test in all cases: in vitro antibacterial evaluation, MIC by broth dilution
# Format in all cases: cell-based
# Conditions in all cases: broth dilution, 18 hours at 35° C.
# Staphylococcus sp. = tested on: Staphylococcus sp.
# Outline: (§1)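 Broth dilution per NCCLS M7-A2 in Mueller-Hinton II medium, inoculum 5×10^5 CFU/mL, antibiotic range 64-0.06 μg/mL. MIC taken as lowest concentration inhibiting growth; Gram-positive panel includes recent clinical isolates resistant to methicillin, penicillin and/or vancomycin.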
# Enterococcus sp. = tested on: Enterococcus sp.
# Outline: as §1
# Streptococcus sp. = tested on: Streptococcus sp.
# Outline: as §1
# Escherichia coli = tested on: Escherichia coli
# Outline: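 Broth dilution MIC per NCCLS M7-A2 in Mueller-Hinton II medium, inoculum 5×10^5 CFU/mL, antibiotic range 64-0.06 μg/mL. MIC taken as lowest concentration inhibiting growth.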
compound,measurement,setting,value
"CCC(=O)Nc1cc(CC2NC(=O)C(C(C)c3ccccc3)NC(=O)CNC(=O)C(CO)NC(=O)C(C(O)C3CNC(=N)N3C3OC(CO)C(O)C(O)C3O)NC(=O)C(C(O)C3CNC(=N)N3)NC2=O)ccc1O (stereo not drawn) [Example 14, Cyclo[glycyl-β-methylphenylalanyl-3-(propanamido)tyrosyl-3-(2-iminoimidazolidin-4-yl)seryl-3-(3-hexopyranosyl-2-iminoimidazolidin-4-yl)serylseryl]]",MIC Staphylococcus aureus (ATCC 29213),Staphylococcus sp.; strain ATCC 29213,>128 µg/mL
same,MIC Staphylococcus aureus (GC 1131),Staphylococcus sp.; strain GC 1131,>128 µg/mL
same,MIC Staphylococcus aureus (GC 3051),Staphylococcus sp.; strain GC 3051,>128 µg/mL
same,MIC Staphylococcus aureus (GC 3053),Staphylococcus sp.; strain GC 3053,>128 µg/mL
same,MIC Staphylococcus aureus (GC 4541),Staphylococcus sp.; strain GC 4541,>128 µg/mL
same,MIC Staphylococcus aureus (GC 4542),Staphylococcus sp.; strain GC 4542,>128 µg/mL
same,MIC Staphylococcus aureus-SMITH (GC 4543),Staphylococcus sp.; strain GC 4543,>128 µg/mL
same,MIC Staphylococcus aureus (GC 4544),Staphylococcus sp.; strain GC 4544,>128 µg/mL
same,MIC Staphylococcus aureus (GC 4545),Staphylococcus sp.; strain GC 4545,>128 µg/mL
same,MIC Staphylococcus haemolyticus (GC 4546),Staphylococcus sp.; strain GC 4546,>128 µg/mL
same,MIC Coagulase Negative Staphylococcus (GC 4547),Staphylococcus sp.; strain GC 4547,>128 µg/mL
same,MIC Coagulase Negative Staphylococcus (GC 4548),Staphylococcus sp.; strain GC 4548,>128 µg/mL
same,MIC Coagulase Negative Staphylococcus (GC 4549),Staphylococcus sp.; strain GC 4549,>128 µg/mL
same,MIC Coagulase Negative Staphylococcus (GC 4551),Staphylococcus sp.; strain GC 4551,>128 µg/mL
same,MIC Coagulase Negative Staphylococcus (GC 6257),Staphylococcus sp.; strain GC 6257,>128 µg/mL
same,MIC Enterococcus faecalis (ATCC 29212),Enterococcus sp.; strain ATCC 29212,>128 µg/mL
same,MIC Enterococcus faecalis (GC 2242),Enterococcus sp.; strain GC 2242,>128 µg/mL
same,MIC Enterococcus faecium (GC 2243),Enterococcus sp.; strain GC 2243,>128 µg/mL
same,MIC Enterococcus faecalis (GC 2691),Enterococcus sp.; strain GC 2691,>128 µg/mL
same,MIC Enterococcus faecalis (GC 3059),Enterococcus sp.; strain GC 3059,>128 µg/mL
same,MIC Enterococcus faecalis (GC 4552),Enterococcus sp.; strain GC 4552,>128 µg/mL
same,MIC Enterococcus faecalis (GC 4553),Enterococcus sp.; strain GC 4553,>128 µg/mL
same,MIC Enterococcus faecalis (GC 4554),Enterococcus sp.; strain GC 4554,>128 µg/mL
same,MIC Enterococcus faecium (GC 4556),Enterococcus sp.; strain GC 4556,>128 µg/mL
same,MIC Enterococcus faecium (GC 4557),Enterococcus sp.; strain GC 4557,>128 µg/mL
same,MIC Enterococcus avium (GC 4558),Enterococcus sp.; strain GC 4558,128 µg/mL
same,MIC Enterococcus faecalis (GC 6189),Enterococcus sp.; strain GC 6189,>128 µg/mL
same,MIC Streptococcus pneumoniae (ATCC 6301),Streptococcus sp.; strain ATCC 6301,>128 µg/mL
same,MIC Streptococcus pneumoniae (GC 1894),Streptococcus sp.; strain GC 1894,128 µg/mL
same,MIC Streptococcus pyogenes (GC 4563),Streptococcus sp.; strain GC 4563,>128 µg/mL
same,MIC Streptococcus agalactiae (GC 4564),Streptococcus sp.; strain GC 4564,128 µg/mL
same,MIC Streptococcus pneumoniae (GC 4565),Streptococcus sp.; strain GC 4565,64 µg/mL
same,MIC Escherichia coli (ATCC 25922),Escherichia coli; strain ATCC 25922,>128 µg/mL
same,MIC Escherichia coli (GC 4559),Escherichia coli; strain GC 4559,>128 µg/mL
same,MIC Escherichia coli (GC 4560),Escherichia coli; strain GC 4560,128 µg/mL
